Data: patent US20220033407A1, “N-(pyridin-2-ylsulfonyl)cyclopropanecarboxamide Derivatives and their Use in the Treatment of Disease” (NOVARTIS AG, priority 2018, published 2022)

How the values were obtained:
[1] = biological target: T1, delF508-CFTR-HRP (Homo sapiens, UniProt P13569, DEL508-508); assay: Measurement of delF508-CFTR-HRP surface expression in CFBE41o- cells (HRP luminescence); type: cell-based; details: for Emax: CFBE41o-, read-out: DelF508-CFTR-HRP Amax %; for EC50: mean of at least two replicates;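 as to DelF508-CFTR-HRP Amax %: percent efficacy relative to a reference CFTR corrector compound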
T1 construct: expressed in transfected cells
Summary of the method: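 EC50 derived by logistic regression of triplicate surface-HRP luminescence, plate-normalized to the lowest-concentration median. Doxycycline (500 ng/mL, 48 h) induced delF508-CFTR-HRP in CFBE41o- cells; compounds then applied 24 h at 37° C, 10 μM top, 3-fold over 10 points.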

[2] = biological target: T2, delF508-CFTR (Homo sapiens, UniProt P13569, DEL508-508); assay: delF508-CFTR functional activity in primary human bronchial epithelial cells (HBECs), Multi-Transepithelial Clamp Circuit (MTECC-24) assay, equivalent short circuit current; type: cell-based; details: primary CF HBECs; for MTECC24 CFHBEC-Amax %: relative to reference combination 2 μM 3-(6-(1-(2,2-difluorobenzo[d][1,3]dioxol-5-yl)cyclopropane-1-carboxamido)-3-methylpyridin-2-yl)benzoic acid (24 h) + 0.5 μM N-(2,4-di-tert-butyl-5-hydroxyphenyl)-4-oxo-1,4-dihydroquinoline-3-carboxamide; for EC50: test compound added 24 h before assay, potentiator (S)-3-amino-6-methoxy-N-(3,3,3-trifluoro-2-hydroxy-2-methylpropyl)-5-(trifluoromethyl)picolinamide present at assay, mean of at least two replicates, read-out: MTECC24 CFHBEC-EC50
T2 construct: functional activity of the CFTR channel (Chloride ion transport) in patient derived primary human bronchial epithelial cells; host or cells: patient-derived primary human bronchial epithelial cells (HBECs), delF508-CFTR
Summary of the method: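 Compound acted as corrector on differentiated primary delF508-CFTR bronchial cultures, first 24 h basolaterally, then 45 min both sides before reading. Equivalent short circuit current was recorded during sequential forskolin and potentiator addition. EC50 came from 10-point, 1-in-3 dilution curves against the 0.1% DMSO baseline.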

T1 sequence (P13569 with tags, fused parts or gaps DEL508-508): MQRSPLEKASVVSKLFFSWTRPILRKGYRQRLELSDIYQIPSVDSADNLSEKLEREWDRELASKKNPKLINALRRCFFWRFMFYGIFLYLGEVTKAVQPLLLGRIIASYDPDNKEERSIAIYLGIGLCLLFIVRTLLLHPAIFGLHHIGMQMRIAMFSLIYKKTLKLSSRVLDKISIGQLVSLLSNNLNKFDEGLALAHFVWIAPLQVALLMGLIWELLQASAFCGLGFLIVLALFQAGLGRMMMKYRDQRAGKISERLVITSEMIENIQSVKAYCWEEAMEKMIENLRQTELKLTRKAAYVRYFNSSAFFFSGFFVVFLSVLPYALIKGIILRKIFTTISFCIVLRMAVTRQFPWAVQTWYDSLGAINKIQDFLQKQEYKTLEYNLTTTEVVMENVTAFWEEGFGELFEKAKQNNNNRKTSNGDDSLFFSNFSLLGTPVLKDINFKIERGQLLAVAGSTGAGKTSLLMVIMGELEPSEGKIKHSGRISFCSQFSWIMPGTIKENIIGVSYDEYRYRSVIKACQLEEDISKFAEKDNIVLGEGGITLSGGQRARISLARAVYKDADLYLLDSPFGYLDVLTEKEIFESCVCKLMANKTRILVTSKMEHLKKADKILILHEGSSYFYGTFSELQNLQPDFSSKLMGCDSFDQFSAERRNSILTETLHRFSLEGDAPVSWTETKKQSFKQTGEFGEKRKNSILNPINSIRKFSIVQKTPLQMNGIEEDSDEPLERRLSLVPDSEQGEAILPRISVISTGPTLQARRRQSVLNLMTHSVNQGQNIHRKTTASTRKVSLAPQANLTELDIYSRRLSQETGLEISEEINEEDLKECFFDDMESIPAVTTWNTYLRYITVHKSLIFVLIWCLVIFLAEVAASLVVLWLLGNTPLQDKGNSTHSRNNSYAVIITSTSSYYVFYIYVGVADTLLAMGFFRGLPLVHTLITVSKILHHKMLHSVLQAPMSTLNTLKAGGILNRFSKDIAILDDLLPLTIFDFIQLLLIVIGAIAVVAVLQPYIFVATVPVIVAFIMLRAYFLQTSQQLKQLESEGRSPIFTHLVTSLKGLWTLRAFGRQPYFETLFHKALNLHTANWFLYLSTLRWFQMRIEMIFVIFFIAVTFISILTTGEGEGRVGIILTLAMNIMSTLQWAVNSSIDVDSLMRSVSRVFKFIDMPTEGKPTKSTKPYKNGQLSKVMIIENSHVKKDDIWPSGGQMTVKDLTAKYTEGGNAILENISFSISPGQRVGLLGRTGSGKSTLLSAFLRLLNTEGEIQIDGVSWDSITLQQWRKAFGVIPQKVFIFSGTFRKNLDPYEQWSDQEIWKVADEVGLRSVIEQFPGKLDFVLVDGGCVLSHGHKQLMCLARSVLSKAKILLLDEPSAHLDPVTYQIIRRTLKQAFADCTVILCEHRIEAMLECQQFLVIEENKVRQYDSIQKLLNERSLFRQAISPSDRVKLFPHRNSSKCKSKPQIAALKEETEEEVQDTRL
T2 sequence (P13569 with tags, fused parts or gaps DEL508-508): as above

With `Cc1ccc(C2(C)CC2)c(OC2(C(=O)NS(=O)(=O)c3cccc(NC[C@H](C)O)n3)CC2)c1` [Example 4-16, (S)-N-((6-((2-Hydroxypropyl)amino)pyridin-2-yl)sulfonyl)-1-(5-methyl-2-(1-methylcyclopropyl)phenoxy)cyclopropane-1-carboxamide] the Emax [1] was 113%, the EC50 [1] was 3460 nM and the “MTECC24 CFHBEC-Amax %” value [2] was 48%. The EC50 [2] was 9 nM.
For `O=C(NS(=O)(=O)c1cccc(N2CC[C@H](O)C2)n1)C1(Oc2cc(Cl)ccc2-c2cccc(C(F)(F)F)c2)CC1` [Example 5-2, (S)-1-((4-Chloro-3′-(trifluoromethyl)-[1,1′-biphenyl]-2-yl)oxy)-N-((6-(3-hydroxypyrrolidin-1-yl)pyridin-2-yl)sulfonyl)cyclopropane-1-carboxamide], the Emax [1] was 313%, the EC50 [1] was 1580 nM and the “MTECC24 CFHBEC-Amax %” value [2] was 62%. It also gave an EC50 [2] of 99 nM.
With `C[C@H](O)CNc1cccc(S(=O)(=O)NC(=O)C2(Oc3cc(Cl)ccc3C3CC3)CC2)n1` [Example 4-15, (S)-1-(5-Chloro-2-cyclopropylphenoxy)-N-((6-((2-hydroxypropyl)amino)pyridin-2-yl)sulfonyl)cyclopropane-1-carboxamide] the Emax [1] was 114%, the EC50 [1] was 4160 nM and the “MTECC24 CFHBEC-Amax %” value [2] was 35%. It also gave an EC50 [2] of 69 nM.
In the case of `CN(C)c1cccc(S(=O)(=O)NC(=O)C2(Oc3cc(Cl)ccc3C3CC4(CCC4)C3)CC2)n1` [Example 7-15, 1-(5-Chloro-2-(spiro[3.3]heptan-2-yl)phenoxy)-N-((6-(dimethylamino)pyridin-2-yl)sulfonyl)cyclopropane-1-carboxamide], the Emax [1] is reported as 442%, the EC50 [1] is reported as 860 nM and the “MTECC24 CFHBEC-Amax %” value [2] is reported as 120.7%. For the same compound, the EC50 [2] was 166 nM.
`Cc1ccc(C2CCCCC2)c(OC2(C(=O)NS(=O)(=O)c3cccc(N4CCC(C)(O)CC4)n3)CC2)c1` [Example 2-49, 1-(2-Cyclohexyl-5-methylphenoxy)-N-((6-(4-hydroxy-4-methylpiperidin-1-yl)pyridin-2-yl)sulfonyl)cyclopropane-1-carboxamide] was tested, and the Emax [1] was 391%, the EC50 [1] was 1050 nM and the “MTECC24 CFHBEC-Amax %” value [2] was 102%. It also gave an EC50 [2] of 5 nM.
For `Cc1ccc(C2CCCCC2)c(OC2(C(=O)NS(=O)(=O)c3cccc(N4CCNC(C(F)(F)F)C4)n3)CC2)c1` (stereo not drawn) [Example 2-37, 1-(2-Cyclohexyl-5-methylphenoxy)-N-((6-(3-(trifluoromethyl)piperazin-1-yl)pyridin-2-yl)sulfonyl)cyclopropanecarboxamide], the Emax [1] was 306%, the EC50 [1] was 1350 nM and the “MTECC24 CFHBEC-Amax %” value [2] was 103%. For the same compound, the EC50 [2] was 3 nM.
With `Cc1ccc(C2CCC(F)(F)CC2)c(OC2(C(=O)NS(=O)(=O)c3cccc(N)n3)CC2)c1` [Example 1-4, N-((6-Aminopyridin-2-yl)sulfonyl)-1-(2-(4,4-difluorocyclohexyl)-5-methylphenoxy)cyclopropane-1-carboxamide] the Emax [1] was 260%, the EC50 [1] was 3970 nM and the “MTECC24 CFHBEC-Amax %” value [2] was 59%. The EC50 [2] was 437 nM.
`Cc1ccc(C2CCCOC2)c(OC2(C(=O)NS(=O)(=O)c3cccc(N4CCC[C@@H](CO)C4)n3)CC2)c1` (stereo partly drawn) [Example 4-20, N-((6-((R)-3-(hydroxymethyl)piperidin-1-yl)pyridin-2-yl)sulfonyl)-1-(5-methyl-2-(tetrahydro-2H-pyran-3-yl)phenoxy)cyclopropane-1-carboxamide] was tested, and the Emax [1] was 202%, the EC50 [1] was 3230 nM and the “MTECC24 CFHBEC-Amax %” value [2] was 54%. For the same compound, the EC50 [2] was 297 nM.
For `Cc1ccc(OCCC2CCCCC2)c(OC2(C(=O)NS(=O)(=O)c3cccc(N4CC[C@H](O)C4)n3)CC2)c1` [Example 6-11, (S)-1-(2-(2-cyclohexylethoxy)-5-methylphenoxy)-N-((6-(3-hydroxypyrrolidin-1-yl)pyridin-2-yl)sulfonyl)cyclopropanecarboxamide], the Emax [1] was 311%, the EC50 [1] was 1180 nM and the “MTECC24 CFHBEC-Amax %” value [2] was 113.6%. It also gave an EC50 [2] of 261 nM.
In the case of `Cc1ccc(C2CCCCC2)c(OC2(C(=O)NS(=O)(=O)c3cccc(NCC(C)O)n3)CC2)c1` (stereo not drawn) [Example 2-45, 1-(2-Cyclohexyl-5-methylphenoxy)-N-((6-((2-hydroxypropyl)amino)pyridin-2-yl)sulfonyl)cyclopropane-1-carboxamide], the Emax [1] is reported as 816%, the EC50 [1] is reported as 2230 nM and the “MTECC24 CFHBEC-Amax %” value [2] is reported as 95%. For the same compound, the EC50 [2] was 6 nM.
`Cc1ccc(C2CCCCC2)c(OC2(C(=O)NS(=O)(=O)c3cccc(N4CCC(N)CC4)n3)CC2)c1` [Example 2-41, N-((6-(4-Aminopiperidin-1-yl)pyridin-2-yl)sulfonyl)-1-(2-cyclohexyl-5-methylphenoxy)cyclopropanecarboxamide] was tested, and the Emax [1] was 142%, the EC50 [1] was 2960 nM and the “MTECC24 CFHBEC-Amax %” value [2] was 54%. It also gave an EC50 [2] of 654 nM.
In the case of `O=C(NS(=O)(=O)c1cccc(N2CC[C@H](O)C2)n1)C1(Oc2cc(Cl)ccc2NC2CCC(C(F)(F)F)CC2)CC1` (stereo partly drawn) [Example 9-19, (S)-1-(5-Chloro-2-((4-(trifluoromethyl)cyclohexyl)amino)phenoxy)-N-((6-(3-hydroxypyrrolidin-1-yl)pyridin-2-yl)sulfonyl)cyclopropanecarboxamide], the Emax [1] is reported as 594%, the EC50 [1] is reported as 2420 nM and the “MTECC24 CFHBEC-Amax %” value [2] is reported as 161.2%. The EC50 [2] was 749 nM.
For `Cc1ccc(C2CCCCC2)c(OC2(C(=O)NS(=O)(=O)c3cccc(N[C@H]4C[C@H](O)C4)n3)CC2)c1` [Example 2-35, 1-(2-Cyclohexyl-5-methylphenoxy)-N-((6-((trans-3-hydroxycyclobutyl)amino)pyridin-2-yl)sulfonyl)cyclopropane-1-carboxamide], the Emax [1] was 235%, the EC50 [1] was 2420 nM and the “MTECC24 CFHBEC-Amax %” value [2] was 76%. It also gave an EC50 [2] of 108 nM.
For `Cc1ccc(-c2cccc(C(F)(F)F)c2)c(OC2(C(=O)NS(=O)(=O)c3cccc(N4CCC(N)(C(F)(F)F)CC4)n3)CC2)c1` [Example 5-16, N-((6-(4-Amino-4-(trifluoromethyl)piperidin-1-yl)pyridin-2-yl)sulfonyl)-1-((4-methyl-3′-(trifluoromethyl)-[1,1′-biphenyl]-2-yl)oxy)cyclopropane-1-carboxamide], the Emax [1] was 294%, the EC50 [1] was 420 nM and the “MTECC24 CFHBEC-Amax %” value [2] was 79%. For the same compound, the EC50 [2] was 7 nM.
For `Cc1ccc(C2CCCCC2)c(OC2(C(=O)NS(=O)(=O)c3cccc(N4CCC(C(=O)OC5CCCC5)CC4)n3)CC2)c1` [Example 2-7], the Emax [1] was 389%, the EC50 [1] was 730 nM and the “MTECC24 CFHBEC-Amax %” value [2] was 63%. For the same compound, the EC50 [2] was 16 nM.
`O=C(NS(=O)(=O)c1cccc(N2CCC(O)(C(F)(F)F)CC2)n1)C1(Oc2cc(Cl)ccc2C2CC3(CCC3)C2)CC1` [Example 7-1, 1-(5-Chloro-2-(spiro[3.3]heptan-2-yl)phenoxy)-N-((6-(4-hydroxy-4-(trifluoromethyl)piperidin-1-yl)pyridin-2-yl)sulfonyl)cyclopropanecarboxamide] was tested, and the Emax [1] was 445%, the EC50 [1] was 490 nM and the “MTECC24 CFHBEC-Amax %” value [2] was 203.8%. It also gave an EC50 [2] of 132 nM.
With `CC1(O)CN(c2cccc(S(=O)(=O)NC(=O)C3(Oc4cc(Cl)ccc4C4CC5(CCC5)C4)CC3)n2)C1` [Example 7-10, 1-(5-Chloro-2-(spiro[3.3]heptan-2-yl)phenoxy)-N-((6-(3-hydroxy-3-methylazetidin-1-yl)pyridin-2-yl)sulfonyl)cyclopropane-1-carboxamide] the Emax [1] was 367%, the EC50 [1] was 1670 nM and the “MTECC24 CFHBEC-Amax %” value [2] was 115.5%. It also gave an EC50 [2] of 356 nM.
In the case of `Cc1ccc(C2CCCCC2)c(OC2(C(=O)NS(=O)(=O)c3cccc(N4CCOC[C@H]4C)n3)CC2)c1` [Example 2-26, (R)-1-(2-Cyclohexyl-5-methylphenoxy)-N-((6-(3-methylmorpholino)pyridin-2-yl)sulfonyl)cyclopropanecarboxamide], the Emax [1] is reported as 500%, the EC50 [1] is reported as 1410 nM and the “MTECC24 CFHBEC-Amax %” value [2] is reported as 89%. It also gave an EC50 [2] of 6 nM.
`Cc1ccc(C2CCCCC2)c(OC2(C(=O)NS(=O)(=O)c3cccc(N4CCC(C)(NC(=O)OC(C)(C)C)CC4)n3)CC2)c1` [Example 2-8, Tert-butyl (1-(6-(N-(1-(2-cyclohexyl-5-methylphenoxy)cyclopropanecarbonyl)sulfamoyl)pyridin-2-yl)-4-methylpiperidin-4-yl)carbamate] was tested, and the Emax [1] was 716%, the EC50 [1] was 540 nM and the “MTECC24 CFHBEC-Amax %” value [2] was 60%. It also gave an EC50 [2] of 63 nM.
For `Cc1ccc(N2CCC(C)(C)CC2)c(OC2(C(=O)NS(=O)(=O)c3cccc(N4CC[C@H](O)C4)n3)CC2)c1` [Example 10-4, (S)-1-(2-(4,4-dimethylpiperidin-1-yl)-5-methylphenoxy)-N-((6-(3-hydroxypyrrolidin-1-yl)pyridin-2-yl)sulfonyl)cyclopropanecarboxamide], the Emax [1] was 717%, the EC50 [1] was 2630 nM and the “MTECC24 CFHBEC-Amax %” value [2] was 103.3%. For the same compound, the EC50 [2] was 482 nM.
In the case of `Cc1ccc(C2CCCCC2)c(OC2(C(=O)NS(=O)(=O)c3cccc(N4CCC(C)(NC(=O)NC5CC5)CC4)n3)CC2)c1` [Example 2-11, 1-(2-Cyclohexyl-5-methylphenoxy)-N-((6-(4-(3-cyclopropylureido)-4-methylpiperidin-1-yl)pyridin-2-yl)sulfonyl)cyclopropanecarboxamide], the Emax [1] is reported as 286%, the EC50 [1] is reported as 2590 nM and the “MTECC24 CFHBEC-Amax %” value [2] is reported as 77%. The EC50 [2] was 20 nM.
